Results taken from PMC8421423, “Cellular model system to dissect the isoform-selectivity of Akt inhibitors” (Nature Communications, 2021).
Values joined by “and” are separate entries in the source; they are usually repeats but may differ in a detail not shown here. Identical values can stand only once. Like-named read-outs stand apart in the source and are kept apart here.

Columns and labels:
Akt3 [1] = target: T1, Akt3 (Homo sapiens, UniProt Q9Y243); test: Cellular thermal shift assay (CETSA) in PANC1 cells; type: cell-based; design: purchased ProQinase #1578-0000-1
T1 sequence (Q9Y243 whole entry): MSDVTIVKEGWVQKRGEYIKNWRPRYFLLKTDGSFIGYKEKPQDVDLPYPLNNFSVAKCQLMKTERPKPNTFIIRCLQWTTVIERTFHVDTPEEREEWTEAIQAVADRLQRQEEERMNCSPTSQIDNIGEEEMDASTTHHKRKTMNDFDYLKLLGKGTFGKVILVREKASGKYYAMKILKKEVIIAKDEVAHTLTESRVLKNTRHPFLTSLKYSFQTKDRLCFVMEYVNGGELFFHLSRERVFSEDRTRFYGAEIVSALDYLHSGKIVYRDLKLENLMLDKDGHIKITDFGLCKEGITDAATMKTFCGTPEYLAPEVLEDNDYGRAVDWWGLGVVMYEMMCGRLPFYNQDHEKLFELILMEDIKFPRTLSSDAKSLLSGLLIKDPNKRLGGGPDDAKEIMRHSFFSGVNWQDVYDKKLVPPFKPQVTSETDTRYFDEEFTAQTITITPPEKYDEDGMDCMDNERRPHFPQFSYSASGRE
Procedure: (§1) Cells were seeded into 100 mm tissue culture plates (Sarstedt) (PANC1: 10^6 cells). After 24 h incubation, cells were treated with 1 µM of inhibitors or DMSO and were incubated for 4.5 h. Cells were washed twice with ice-cold PBS and then suspended in 1 mL PBS. Cells were collected and separated into equal volumes (100 µL). The aliquots were treated individually with different temperatures for 3 min, followed by a 3 min incubation at room temperature. Cell lysis was initiated by adding 100 µL RIPA buffer and 2 freeze-thaw cycles in liquid nitrogen. The lysates were centrifuged at 21,130×g for 20 min at room temperature. The supernatants were transferred into fresh, pre-cooled microcentrifuge tubes, and analyzed by western blot analysis as described above.

Ba/F3^myr-Akt2 cells = test: CellTiter-Glo cell viability assay; details: for cell viability: CTG
Ba/F3^myr-Akt1 cells = test: CellTiter-Glo cell viability assay; details: for cell viability: CTG
Procedure: (§2) On day 0, cells were plated into white 384-well cell culture plates (Greiner Bio-One) using a Multidrop reagent dispenser (Thermo Fisher Scientific) at cell numbers that ensure linear and optimal luminescent signal intensity (Ba/F3myr-Akt1: 600 cells/well, Ba/F3myr-Akt2: 800 cells/well, Ba/F3myr-Akt3: 800 cells/well). […] Cell viability was analyzed on day 4 using the CellTiter-Glo Assay (Promega) as per the manufacturer’s instructions. […] All experimental points were measured in duplicates for each plate and were replicated in at least three plates.

Akt1 [2] = target: T2, Akt1 (Homo sapiens, UniProt P31749); test: Cellular thermal shift assay (CETSA) in PANC1 cells; type: cell-based; design: purchased ProQinase #1379-0000-2
T2 sequence (P31749 whole entry): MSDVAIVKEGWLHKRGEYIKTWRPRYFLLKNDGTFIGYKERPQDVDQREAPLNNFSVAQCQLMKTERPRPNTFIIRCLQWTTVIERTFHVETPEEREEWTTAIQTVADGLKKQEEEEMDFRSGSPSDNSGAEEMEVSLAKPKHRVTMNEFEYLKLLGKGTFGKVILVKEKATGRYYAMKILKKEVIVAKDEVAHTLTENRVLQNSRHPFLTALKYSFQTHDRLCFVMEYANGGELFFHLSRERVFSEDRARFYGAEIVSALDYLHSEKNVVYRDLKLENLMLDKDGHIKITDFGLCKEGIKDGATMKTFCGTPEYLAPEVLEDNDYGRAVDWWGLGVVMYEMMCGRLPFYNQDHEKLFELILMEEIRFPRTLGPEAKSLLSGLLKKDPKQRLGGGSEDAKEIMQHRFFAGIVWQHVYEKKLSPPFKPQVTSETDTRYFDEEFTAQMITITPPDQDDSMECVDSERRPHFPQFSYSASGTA
Procedure: as §1

pAkt2 = test: Western blot analysis, PANC1 cells; type: cell-based, human; details: PANC1, 24-h treatment
Procedure: Cells were seeded into six-well tissue culture plates (Sarstedt) (BaF3 myr-Akt1/2/3: 10^6 cells/well, PANC1: 250.000 cells/well). […] Cell lysis was initiated by addition of 100 μL RIPA buffer (Cell Signaling Technology) per well supplemented with phosphatase and protease inhibitor cocktails (Sigma) followed by incubation on ice for 20 min. Cells were then harvested by scraping (PANC1) or centrifugation (BaF3). Whole cell lysates were cleared by centrifugation at 14,000×g/4 °C for 10 min and transferred into fresh, pre-cooled microcentrifuge tubes. Protein concentrations were determined using the Pierce BCA protein assay (Thermo) as per manufacturer’s instructions. Equal amounts of protein were separated by SDS-PAGE and transferred to Immobilon-FL PVDF membranes (Merck Millipore) using Pierce™ 1-step transfer buffer (Thermo) and the Pierce™ Power Blotter (Thermo). Membranes were washed for 5 min with ddH2O, blocked with Intercept®Blocking Buffer TBS (Li-Cor) for 1 h at room temperature, and then incubated with primary antibodies diluted in Intercept®Blocking Buffer TBS overnight at 4 °C with gentle agitation. On the next day, the membranes were washed three times with TBS-T (50 mM Tris, 150 mM NaCl, 0.05 % Tween 20, pH 7.4) for 5 min before being incubated with secondary antibodies diluted in Intercept®Blocking Buffer TBS for 1 h at room temperature with gentle agitation. Finally, the membranes were washed three times for 5 min with TBS-T and then scanned using an Odyssey®CLx imaging system (Li-Cor).

Akt1 [3] = target: T2, Akt1; test: STK HTRF KinEASE activity-based assay (IC50)
Akt3 [4] = target: T1, Akt3; test: STK HTRF KinEASE activity-based assay (IC50)
Akt2 [5] = target: T3, Akt2 (Homo sapiens, UniProt P31751); test: STK HTRF KinEASE activity-based assay (IC50)
T3 sequence (P31751 whole entry): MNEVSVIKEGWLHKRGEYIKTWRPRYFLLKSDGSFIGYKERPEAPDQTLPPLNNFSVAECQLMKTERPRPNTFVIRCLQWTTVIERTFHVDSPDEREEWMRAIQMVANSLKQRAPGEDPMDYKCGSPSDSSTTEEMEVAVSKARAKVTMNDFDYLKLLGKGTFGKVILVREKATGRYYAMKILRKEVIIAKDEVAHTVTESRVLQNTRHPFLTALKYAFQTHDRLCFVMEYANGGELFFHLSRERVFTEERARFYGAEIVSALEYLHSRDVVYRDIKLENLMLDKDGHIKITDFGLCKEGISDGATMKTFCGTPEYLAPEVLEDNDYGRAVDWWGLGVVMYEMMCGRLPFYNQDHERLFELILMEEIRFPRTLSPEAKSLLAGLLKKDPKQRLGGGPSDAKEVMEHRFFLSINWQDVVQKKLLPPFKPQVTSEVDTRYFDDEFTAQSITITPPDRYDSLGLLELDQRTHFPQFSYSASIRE
Procedure: The biochemical half maximal inhibitory concentrations (IC50) were determined with the STK HTRF KinEASE assay (Cisbio) according to the manufactor’s instructions. Briefly: 5 µL Kinase solution and 2.5 µL inhibitor solution (8% DMSO in HTRF buffer) were incubated for 1 h before the reaction was started by addition of 2.5 µL starting solution containing ATP and substrate peptide. […] After reaction completion (Akt1: 60 min, Akt2: 20 min, Akt3: 15 min), 10 µL of stop solution were added. […] The quotient of both intensities were recorded at eight different inhibitor concentrations and data fit to a Hill 4-parameter equation with Quattro software suite (Quattro Research GmbH, Martinsried, Germany). Each reaction was performed in duplicates and at least three independent determinations of each IC50 were made.

Ba/F3^myr-Akt3 cells = test: CellTiter-Glo cell viability assay; details: for cell viability: CTG
Procedure: as §2

parental Ba/F3 cells = test: CellTiter-Glo cell viability assay; type: cell-based, murine; details: for cell viability: CTG, parental
Procedure: as §2

[6] = CellTiter-Glo cell viability assay; type: cell-based, murine; details: mouse, parental Ba/F3 cells, CTG, parental, single replicates
Procedure: as §2

Akt2 [7] = target: T3, Akt2; test: Cellular thermal shift assay (CETSA) in PANC1 cells; type: cell-based; design: purchased Thermo Fisher Scientific #PV3184
Procedure: as §1

[8] = CETSA PANC1, 0.3 µM, temperature 39.9
[9] = CETSA PANC1, 0.3 µM, temperature 43.5
[10] = CETSA PANC1, 0.3 µM, temperature 48.4
[11] = CETSA PANC1, 0.3 µM, temperature 53.8
[12] = CETSA PANC1, 0.3 µM, temperature 58.1
[13] = CETSA PANC1, 0.3 µM, temperature 61.4
[14] = CETSA PANC1, 0.3 µM, temperature 65.6
[15] = CETSA PANC1, 0.3 µM, temperature 70.9
[16] = CETSA PANC1, 0.3 µM, temperature 76
[17] = CETSA PANC1, 0.3 µM, temperature 79.9
[18] = CETSA PANC1, 1 µM, temperature 39.9
[19] = CETSA PANC1, 1 µM, temperature 43.5
[20] = CETSA PANC1, 1 µM, temperature 48.4
[21] = CETSA PANC1, 1 µM, temperature 53.8
[22] = CETSA PANC1, 1 µM, temperature 58.1
[23] = CETSA PANC1, 1 µM, temperature 61.4
[24] = CETSA PANC1, 1 µM, temperature 65.6
[25] = CETSA PANC1, 1 µM, temperature 70.9
[26] = CETSA PANC1, 1 µM, temperature 76
[27] = CETSA PANC1, 1 µM, temperature 79.9
[28] = cell viability assay Ba/F3 myr-Akt cells, log units

## C=CC(=O)Nc1ccc2[nH]c(=O)n(C3CCN(Cc4ccc(-c5ncccc5-c5ccccc5)cc4)CC3)c2c1 [compound 1]
Akt3 [1]; [8]
  tAkt3 %: 100.00%
Akt3 [1]; [9]
  tAkt3 %: 53.46%
Akt3 [1]; [10]
  tAkt3 %: 48.12%
Akt3 [1]; [11]
  tAkt3 %: 46.68%
Akt3 [1]; [12]
  tAkt3 %: 22.77%
Akt3 [1]; [13]
  tAkt3 %: 21.02%
Akt3 [1]; [14]
  tAkt3 %: 20.86%
Akt3 [1]; [15]
  tAkt3 %: 9.30%
Akt3 [1]; [16]
  tAkt3 %: 7.63%
Akt3 [1]; [17]
  tAkt3 %: 0.00%
Akt3 [1]; [18]
  tAkt3 %: 100.00%
Akt3 [1]; [19]
  tAkt3 %: 12.48%
Akt3 [1]; [20]
  tAkt3 %: 11.45%
Akt3 [1]; [21]
  tAkt3 %: 15.32%
Akt3 [1]; [22]
  tAkt3 %: 13.90%
Akt3 [1]; [23]
  tAkt3 %: 14.16%
Akt3 [1]; [24]
  tAkt3 %: 2.70%
Akt3 [1]; [25]
  tAkt3 %: 0.26%
Akt3 [1]; [26]
  tAkt3 %: 0.00%
Akt3 [1]; [27]
  tAkt3 %: 0.00%
Ba/F3^myr-Akt2 cells; myr-Akt2, 0.1 nM, single replicates, 0.0001 µM
  cell viability: 96.6 % of control and 111.8 % of control
Ba/F3^myr-Akt2 cells; myr-Akt2, 5000 nM, single replicates, 5 µM
  cell viability: 74.8 % of control and 79.6 % of control
Ba/F3^myr-Akt2 cells; Mus musculus, read-out: CTG BaF3myr-Akt2, Mean, mean of replicates
  EC50: 4.47 µM
Ba/F3^myr-Akt2 cells; Mus musculus, read-out: cell viability, CTG, myr-Akt2, 0.1 nM, single replicates
  viability at 0.0001 µM: 105%
Ba/F3^myr-Akt2 cells; Mus musculus, read-out: cell viability, CTG, myr-Akt2, 5000 nM, single replicates
  viability at 5 µM: 84.5%
Ba/F3^myr-Akt2 cells; read-out: CTG BaF3myr-Akt2, individual determinations, single replicates
  EC50: 6.33 µM and 5.56 µM and 1.52 µM
Ba/F3^myr-Akt1 cells; myr-Akt1, 0.1 nM, single replicates, 0.0001 µM
  cell viability: 91.2 % of control and 96.3 % of control
Ba/F3^myr-Akt1 cells; myr-Akt1, 5000 nM, single replicates, 5 µM
  cell viability: 6.7 % of control and 13.9 % of control and 18.5 % of control
Ba/F3^myr-Akt1 cells; Mus musculus, read-out: CTG BaF3myr-Akt1, Mean, mean of replicates
  EC50: 1.79 µM
Ba/F3^myr-Akt1 cells; Mus musculus, read-out: cell viability, CTG, myr-Akt1, 0.1 nM, single replicates
  viability at 0.0001 µM: 85.5%
Ba/F3^myr-Akt1 cells; [28]
  Log ratio EC50 [Akt] / EC50 [Akt], Akt1 / Akt2: -0.40
Ba/F3^myr-Akt1 cells; read-out: CTG BaF3myr-Akt1, individual determinations, single replicates
  EC50: 1.19 µM and 1.5 µM and 2.67 µM
Akt1 [2]; [8]
  tAkt1 %: 100.00%
Akt1 [2]; [9]
  tAkt1 %: 101.52%
Akt1 [2]; [10]
  tAkt1 %: 79.62%
Akt1 [2]; [11]
  tAkt1 %: 74.15%
Akt1 [2]; [12]
  tAkt1 %: 68.37%
Akt1 [2]; [13]
  tAkt1 %: 51.95%
Akt1 [2]; [14]
  tAkt1 %: 36.13%
Akt1 [2]; [15]
  tAkt1 %: 22.45%
Akt1 [2]; [16]
  tAkt1 %: 11.95%
Akt1 [2]; [17]
  tAkt1 %: 0.00%
Akt1 [2]; [18]
  tAkt1 %: 100.00%
Akt1 [2]; [19]
  tAkt1 %: 88.73%
Akt1 [2]; [20]
  tAkt1 %: 82.43%
Akt1 [2]; [21]
  tAkt1 %: 73.59%
Akt1 [2]; [22]
  tAkt1 %: 56.69%
Akt1 [2]; [23]
  tAkt1 %: 2.43%
Akt1 [2]; [24]
  tAkt1 %: 11.71%
Akt1 [2]; [25]
  tAkt1 %: 5.41%
Akt1 [2]; [26]
  tAkt1 %: 0.00%
Akt1 [2]; [27]
  tAkt1 %: 0.00%
Akt1 [2]; PANC1, 0.3 µM
  thermal stabilization of Akt1 (CETSA, in words): preferred stabilization of Akt1
Akt1 [2]; PANC1, 1 µM
  thermal stabilization of Akt1 (CETSA, in words): losing this selectivity
pAkt2
  pAkt2 level (immunoblot): downregulation of pAkt1 and pAkt2
Akt1 [3]; HTRF IC50 Akt1, individual determinations, single replicates
  IC50: 0.0439 µM and 0.0722 µM and 0.0428 µM
Akt1 [3]; IC50 Akt1, HTRF, ATP at KM, 1 h preincubation
  IC50: 0.053 ± 0.013 µM
Akt1 [3]; biochemical activity based assay, log units
  Log ratio IC50 [Akt] / IC50 [Akt], Akt1 / Akt2: -1.05
Akt3 [4]; HTRF IC50 Akt3, individual determinations, single replicates
  IC50: 5.63 µM and 8.2 µM and 6.05 µM
Akt3 [4]; IC50 Akt3, HTRF, ATP at KM, 1 h preincubation
  IC50: 6.63 ± 1.13 µM
Akt3 [4]; biochemical IC50
  loss of activity for Akt3 compared to Akt1: 100 fold
Akt2 [5]; HTRF IC50 Akt2, Mean, mean of replicates
  IC50: 0.599 µM
Akt2 [5]; HTRF IC50 Akt2, individual determinations, single replicates
  IC50: 0.658 µM and 0.512 µM and 0.626 µM
Akt2 [5]; IC50 Akt2, HTRF, ATP at KM, 1 h preincubation
  IC50: 0.599 ± 0.063 µM
Akt2 [5]; biochemical IC50
  loss of activity for Akt2 compared to Akt1: 10 fold
Ba/F3^myr-Akt3 cells; myr-Akt3, 0.1 nM, single replicates, 0.0001 µM
  cell viability: 105.8 % of control and 97.9 % of control
Ba/F3^myr-Akt3 cells; myr-Akt3, 5000 nM, single replicates, 5 µM
  cell viability: 61.6 % of control and 92.9 % of control and 84.6 % of control
Ba/F3^myr-Akt3 cells; Mus musculus, read-out: CTG BaF3myr-Akt3, Mean, mean of replicates
  EC50: > 30 µM
Ba/F3^myr-Akt3 cells; Mus musculus, read-out: CTG BaF3myr-Akt3, individual determinations, single replicates
  EC50: > 30 µM
Ba/F3^myr-Akt3 cells; Mus musculus, read-out: EC50 BaF3myr-Akt3, CTG
  EC50: > 30 µM
Ba/F3^myr-Akt3 cells; Mus musculus, read-out: cell viability, CTG, myr-Akt3, 0.1 nM, single replicates
  viability at 0.0001 µM: 103%
Ba/F3^myr-Akt3 cells; [28]
  Log ratio EC50 [Akt] / EC50 [Akt], Akt3 / Akt2: -0.83
Ba/F3^myr-Akt3 cells; read-out: CTG BaF3myr-Akt3, individual determinations, single replicates
  EC50: > 30 µM
Parental Ba/F3 cells; 0.1 nM, single replicates, 0.0001 µM
  cell viability: 107.4 % of control and 103.8 % of control
Parental Ba/F3 cells; 5000 nM, single replicates, 5 µM
  cell viability: 99.2 % of control and 101.9 % of control
Parental Ba/F3 cells; Mus musculus, BaF3, parental cells, mean of replicates, read-out: CTG BaF3, Mean
  EC50: 6.89 µM
Parental Ba/F3 cells; Mus musculus, BaF3, parental cells, single replicates, read-out: CTG BaF3, individual determinations
  EC50: 7.69 µM
Parental Ba/F3 cells; parental cells, single replicates, read-out: CTG BaF3, individual determinations
  EC50: 6.99 µM and 6 µM
[6]; 0.1 nM, read-out: cell viability
  viability at 3 days, 0.0001 µM: 100%
[6]; 5000 nM
  viability at 3 days, 5 µM: 106%
Akt2 [7]; [8]
  tAkt2 %: 100.00%
Akt2 [7]; [9]
  tAkt2 %: 64.53%
Akt2 [7]; [10]
  tAkt2 %: 56.84%
Akt2 [7]; [11]
  tAkt2 %: 46.79%
Akt2 [7]; [12]
  tAkt2 %: 50.34%
Akt2 [7]; [13]
  tAkt2 %: 34.71%
Akt2 [7]; [14]
  tAkt2 %: 11.57%
Akt2 [7]; [15]
  tAkt2 %: 0.00%
Akt2 [7]; [16]
  tAkt2 %: 3.97%
Akt2 [7]; [17]
  tAkt2 %: 0.00%
Akt2 [7]; [18]
  tAkt2 %: 100.00%
Akt2 [7]; [19]
  tAkt2 %: 102.86%
Akt2 [7]; [20]
  tAkt2 %: 75.10%
Akt2 [7]; [21]
  tAkt2 %: 33.02%
Akt2 [7]; [22]
  tAkt2 %: 70.90%
Akt2 [7]; [23]
  tAkt2 %: 3.44%
Akt2 [7]; [24]
  tAkt2 %: 7.92%
Akt2 [7]; [25]
  tAkt2 %: -2.39%
Akt2 [7]; [26]
  tAkt2 %: 37.12%
Akt2 [7]; [27]
  tAkt2 %: 0.00%
